Experimental data reported in US10393744B2, “Peptides for targeting colorectal cancer, and medical use thereof” (UNIVERSITY OF ULSAN FOUNDATION FOR INDUSTRY COOPERATION, priority 2014, dated 2019).

How the values were obtained:
[1] = system: Radio-sensitive colorectal cancer tissue of patient (case C87); assay: In vivo/ex vivo imaging and phage elution of Cy5.5-labeled peptide-expressing phages in mouse model transplanted with patient's colorectal cancer tissue (Example 4); set-up: species or system nude mouse; settings: for in vivo ROI: Cy5.5 fluorescence total flux standardized to Cy5.5 dye control; for pfu/mg (concentration of eluted phages relative to weight of cancer tissue) / ex vivo ROI: extracted cancer tissue; for ex vivo ROI: standardized to Cy5.5 dye control
Source text: (§1) Then, the distributed cancer tissue was kept in a specific preservative solution and transferred directly to an animal chamber, so as to maintain a state in which the cancer tissue was not separated from a patient yet. After an NOD/SCID mouse was anesthetized via intraperitoneal injection of anesthetics, the cancer tissue was cut into pieces each having a size of 3×3 mm. Next, each of both flanks of the NOD/SCID mouse was transplanted with a piece of the cut cancer tissues, and sutured. The NOD/SCID mouse was then recovered on a heating pad for about 2 hours (conditions of the preservative solution: HBSS containing 100 IU/ml penicillin, 100 μg/ml streptomycin, 100 μg/ml gentamicin, 2.5 μg/ml amphotericin B, and 5% fetal bovine serum). After completion of the transplantation, the NOD/SCID mouse was raised until tumors were formed. Meanwhile, the formation and growth of tumors were checked at least once a week. When the transplanted cancer tissues grew to a size of at least 500 mm^3, an extraction process was performed thereon. Then, the extracted cancer tissues were each cut into pieces each having a size of 3×3 mm for subculturing. A nude mouse was anesthetized via intraperitoneal injection of anesthetics, and a piece of the cut cancer tissues was transplanted subcutaneously on the right thigh of the nude mouse. A transplantation site was changed from the flank to the thigh so that irradiation can be locally done without affecting other organs during irradiation. That is, a finally used mouse model transplanted with a patient's colorectal cancer tissue in the present invention was a mouse model established in a way that a cancer tissue that underwent subculturing four times was re-transplanted to form a cancer tissue. When the size of the cancer tissue was increased to about 250 mm^3, only the cancer tissue was irradiated with 2 grays (Gy) of radiation. After having recovery time for no longer than 24 hours, in vivo peptide screening was performed. Here, a non-irradiated population, which is a control group, was also subjected to screening in a separate manner.
(§2) In detail, regarding in vivo imaging verification, the peptide-expressing phage was amplified, and a process of linking a fluorescent probe (Cy5.5) was performed. In particular, 1 μg/μl of N-hydroxysuccinimide esters of Cy5.5 (Amersham) was added to 1 mL of bicarbonate buffer (pH 8.3) having the phage concentration of 10^12 plaque forming units (pfu), and then, in a condition where a dark environment was maintained, a phage-surface protein was linked to the Cy5.5 fluorescent probe at room temperature for 3 hours. That is, amine groups of the phage-surface protein were chemically linked to N-hydroxysuccinimide esters of the Cy5.5 fluorescent probe via a covalent bond. The peptide-expressing phages to which the Cy5.5 fluorescent probe was linked were each obtained by precipitation with 170 μl of 20% (w/v) PEG 8000/2.5 M NaCl solution and purification. To determine a proportion of the Cy5.5 fluorescent probe linked to each of the finally obtained phage samples, an IVIS spectrum imaging system (Xenogen) was used for measurement, and region of interest (ROI) values were determined using the software program of a corresponding device.
(§3) In addition, on the last day of the in vivo imaging, the cancer tissues were each extracted, to thereby obtain ex vivo images thereof.

[2] = system: Radio-resistant colorectal cancer tissue of patient (case C65); assay: as above; set-up: species or system nude mouse; settings: for in vivo ROI: Cy5.5 fluorescence total flux standardized to Cy5.5 dye control; for pfu/mg (concentration of eluted phages relative to weight of cancer tissue) / ex vivo ROI: extracted cancer tissue; for ex vivo ROI: standardized to Cy5.5 dye control
Source text: as §1, §2, §3

[3] = case C87, non-irradiated population
[4] = case C65, non-irradiated population
[5] = case C65, irradiated population (2 Gy)
[6] = case C87, irradiated population (2 Gy)

Row | Substance | in vivo ROI [1, 3] | pfu/mg (concentration of eluted phages relative to weight of cancer tissue) [1, 3] | ex vivo ROI [1, 3] | in vivo ROI [2, 4] | ex vivo ROI [2, 4] | in vivo ROI [1, 6] | ex vivo ROI [1, 6] | other results
1 | AFKSPSG [E14] | 0.70 | 2.89 pfu/mg | 0.55 |  |  |  |  | 
2 | AIKNTKS [E8] | 0.90 | 15.00 pfu/mg | 0.49 |  |  |  |  | 
3 | ASKSTHD [A7] |  |  |  | 1.80 | 1.08 |  |  | pfu/mg (concentration of eluted phages relative to weight of cancer tissue) [2, 4]: 27.14 pfu/mg
4 | Cy5.5 [reference compound] | 1.00 |  | 1.00 | 1.00 | 1.00 | 1.00 | 1.00 | in vivo ROI [2, 5]: 1.00; ex vivo ROI [2, 5]: 1.00
5 | DETSGQI [E12] | 1.24 | 5.56 pfu/mg | 1.07 |  |  |  |  | 
6 | DLLHRGA [A9] |  |  |  | 2.35 | 0.56 |  |  | pfu/mg (concentration of eluted phages relative to weight of cancer tissue) [2, 4]: 54.17 pfu/mg
7 | DNSKLVE [F4] |  |  |  |  |  | 1.59 | 3.11 | pfu/mg (concentration of eluted phages relative to weight of cancer tissue) [1, 6]: 69.18 pfu/mg
8 | DVSGNW [A8] |  |  |  | 2.99 | 1.57 |  |  | pfu/mg (concentration of eluted phages relative to weight of cancer tissue) [2, 4]: 8.56 pfu/mg
9 | GGNSNQR [E5] | 0.92 | 15.96 pfu/mg | 0.76 |  |  |  |  | 
10 | GQSGARF [F8] |  |  |  |  |  | 1.18 | 1.92 | pfu/mg (concentration of eluted phages relative to weight of cancer tissue) [1, 6]: 6.10 pfu/mg
11 | GYSSFNR [B6] | 1.12 | 3.96 pfu/mg | 0.62 |  |  |  |  | in vivo ROI [2, 5]: 3.03; pfu/mg (concentration of eluted phages relative to weight of cancer tissue) [2, 5]: 211.76 pfu/mg; ex vivo ROI [2, 5]: 2.06
12 | HKTEHRS [E18] | 0.69 | 4.15 pfu/mg | 0.21 |  |  |  |  | 
13 | KISLPHN [E13] | 1.50 | 1.22 pfu/mg | 0.93 |  |  |  |  | 
14 | KLTQMM [F1] |  |  |  |  |  | 1.63 | 2.39 | pfu/mg (concentration of eluted phages relative to weight of cancer tissue) [1, 6]: 6.73 pfu/mg
15 | LGSVGRD [F7] |  |  |  |  |  | 1.61 | 3.97 | pfu/mg (concentration of eluted phages relative to weight of cancer tissue) [1, 6]: 141.04 pfu/mg
16 | LKLGEKW [B7] |  |  |  |  |  | 1.00 | 2.92 | in vivo ROI [2, 5]: 1.72; pfu/mg (concentration of eluted phages relative to weight of cancer tissue) [2, 5]: 3.45 pfu/mg; ex vivo ROI [2, 5]: 0.62; pfu/mg (concentration of eluted phages relative to weight of cancer tissue) [1, 6]: 1.90 pfu/mg
17 | LKTSGTY [E15] | 0.77 | 6.13 pfu/mg | 0.47 |  |  |  |  | 
18 | LQPKASQ [A6] |  |  |  | 2.75 | 1.47 |  |  | pfu/mg (concentration of eluted phages relative to weight of cancer tissue) [2, 4]: 15.4 pfu/mg
19 | LTGSVNK [E10] | 1.19 | 2.25 pfu/mg | 1.00 |  |  |  |  | 
20 | MARYMSA [A10] |  |  |  | 2.26 | 1.58 |  |  | pfu/mg (concentration of eluted phages relative to weight of cancer tissue) [2, 4]: 183.16 pfu/mg
